Measured values taken from ChEMBL document CHEMBL1201862, “PubChem BioAssay data set” (2004).
Activity calls are given as the source filed them.

Tests used:
[1] = HEK-293T viability loss after treatment – luminescence, T-cell screen hits, cytotoxicity control for TCR NF-kB inhibitor project, dose response (AID 489026); assay type: functional, cell-based;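 note: cells exposed to compound about 14 hours before the viability readout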
[2] = HIV-1 AD8 envelope cell-cell fusion blockers – cherry-pick, dose response (AID 652062); assay type: functional, cell-based;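 note: luciferase signal from cell-cell fusion driven by HIV-1 clade B AD8 Env; potency is for inhibitors of fusion seen as a drop in luminescence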
[3] = viability loss in CEM21 cells – cell-based, CellTiter-Glo luminescence, cherry-picked, cytotoxicity control for viral fusion inhibitor project, dose response (AID 652042); assay type: functional;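 note: potency for signal decrease meaning cytotoxicity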
Paired box protein Pax-8 = Paired box protein Pax-8 (Homo sapiens, UniProt Q06710); assay: PAX8 transcriptional activity inhibition in RMG-I – RMG-I cells, luciferase, cherry-pick, dose response (AID 687027); assay type: functional, cell-based;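 note: luciferase reporter driven by Pax8 target thyroperoxidase promoter measured by SteadyGlo luminescence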
[4] = blockers of HIV-1 envelope-mediated cell-cell fusion – cherry-pick, dose response (AID 652057); assay type: functional, cell-based
[5] = molecular target: T1, Calpain-2 catalytic subunit (Sus scrofa, UniProt P43367); assay: m-calpain protease blockers, concentration series – biochemical, fluorogenic peptide substrate, dose response (AID 1420); assay type: functional
T1 sequence (P43367 whole entry): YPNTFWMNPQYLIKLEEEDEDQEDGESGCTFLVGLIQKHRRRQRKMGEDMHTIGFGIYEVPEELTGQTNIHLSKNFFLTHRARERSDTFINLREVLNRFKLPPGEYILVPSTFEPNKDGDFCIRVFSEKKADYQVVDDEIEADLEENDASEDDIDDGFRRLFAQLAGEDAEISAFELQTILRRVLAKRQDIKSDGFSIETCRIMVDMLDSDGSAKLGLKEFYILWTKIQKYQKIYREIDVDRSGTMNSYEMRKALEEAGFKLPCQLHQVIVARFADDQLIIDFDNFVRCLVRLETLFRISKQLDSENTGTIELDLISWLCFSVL

[6] = blockers of HIV-1 ZM109 envelope-driven cell-cell fusion – HeLa effector, CEM target cells, luciferase, cherry-pick, dose response (AID 652058); assay type: functional, cell-based;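 note: luciferase signal from HIV-1 Env mediated cell-cell fusion of effector and target cells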
Cytochrome P450 2D6 = Cytochrome P450 2D6 (Homo sapiens, UniProt P10635);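 note: CYP2D6 member of a cytochrome P450 panel assay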
Cytochrome P450 2C9 = Cytochrome P450 2C9 (Homo sapiens, UniProt P11712)
[7] = off-target signal loss in HeLa-CEM21 co-culture – HeLa F-luc CTL cells, cherry-picked, counter-screen for HIV-1 Env fusion inhibitor project, dose response (AID 652040); assay type: functional, cell-based;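 note: potency for signal decrease marking cytotoxic or nonspecific inhibition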
[8] = molecular target: T2, Endoribonuclease toxin MazF (Escherichia coli K-12, UniProt P0AE70); assay: substrate-only fluorescence increase artefacts – biochemical, single-stranded RNase substrate, counter-screen for MazEF activator project, dose response (AID 588502); assay type: functional
T2 sequence (P0AE70 whole entry): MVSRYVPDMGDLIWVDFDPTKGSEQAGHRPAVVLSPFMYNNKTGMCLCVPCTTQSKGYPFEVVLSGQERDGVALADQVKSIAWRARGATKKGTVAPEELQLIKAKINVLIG

[9] = molecular target: T3, Corticotropin-releasing factor receptor 2/Corticotropin-releasing factor-binding protein (Homo sapiens, UniProt P24387+Q13324); assay: activators of CRF receptor 2 with binding protein – uHTS hits, confirmation (AID 602473); assay type: functional; conditions: read-out: EC50_Mean
T3 sequence (Q13324 whole entry): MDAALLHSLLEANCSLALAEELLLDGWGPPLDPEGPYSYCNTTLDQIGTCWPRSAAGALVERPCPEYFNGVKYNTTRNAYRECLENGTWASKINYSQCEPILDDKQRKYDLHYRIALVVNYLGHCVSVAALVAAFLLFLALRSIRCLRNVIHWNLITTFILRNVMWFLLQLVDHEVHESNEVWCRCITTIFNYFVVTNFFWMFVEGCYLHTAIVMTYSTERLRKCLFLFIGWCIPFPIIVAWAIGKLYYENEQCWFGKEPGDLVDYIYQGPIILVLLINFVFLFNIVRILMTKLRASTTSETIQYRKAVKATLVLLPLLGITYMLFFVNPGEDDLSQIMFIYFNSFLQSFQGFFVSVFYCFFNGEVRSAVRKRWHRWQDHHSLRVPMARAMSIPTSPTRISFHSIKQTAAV
T3 sequence (P24387 whole entry): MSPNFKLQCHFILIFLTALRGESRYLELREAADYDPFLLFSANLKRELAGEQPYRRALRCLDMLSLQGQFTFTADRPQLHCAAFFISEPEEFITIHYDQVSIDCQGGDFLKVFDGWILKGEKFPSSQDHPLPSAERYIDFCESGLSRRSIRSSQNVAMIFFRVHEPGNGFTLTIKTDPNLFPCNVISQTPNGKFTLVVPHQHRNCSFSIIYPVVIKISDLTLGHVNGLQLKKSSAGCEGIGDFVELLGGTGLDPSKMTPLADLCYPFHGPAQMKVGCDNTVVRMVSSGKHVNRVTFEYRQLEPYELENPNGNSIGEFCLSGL

[10] = molecular target: T2, Endoribonuclease toxin MazF; assay: activation of MazEF endoribonuclease cleavage – biochemical, fluorescence, single-stranded RNA substrate, uHTS hits, dose response (AID 588481); assay type: functional
[11] = molecular target: T3, Corticotropin-releasing factor receptor 2/Corticotropin-releasing factor-binding protein; assay: Dose Response confirmation of uHTS hits for small molecule antagonists of the CRF-binding protein and CRF-R2 receptor complex.; assay type: functional; conditions: read-out: IC50_Mean
[12] = molecular target: T4, Rac GTPase-activating protein 1 (Homo sapiens, UniProt Q9H0H5); assay: blockers of MgcRacGAP-driven Rac1 GTP hydrolysis – biochemical, ADP Hunter fluorescence, primary and confirmatory, confirmation (AID 624330); assay type: functional
T4 sequence (Q9H0H5 whole entry): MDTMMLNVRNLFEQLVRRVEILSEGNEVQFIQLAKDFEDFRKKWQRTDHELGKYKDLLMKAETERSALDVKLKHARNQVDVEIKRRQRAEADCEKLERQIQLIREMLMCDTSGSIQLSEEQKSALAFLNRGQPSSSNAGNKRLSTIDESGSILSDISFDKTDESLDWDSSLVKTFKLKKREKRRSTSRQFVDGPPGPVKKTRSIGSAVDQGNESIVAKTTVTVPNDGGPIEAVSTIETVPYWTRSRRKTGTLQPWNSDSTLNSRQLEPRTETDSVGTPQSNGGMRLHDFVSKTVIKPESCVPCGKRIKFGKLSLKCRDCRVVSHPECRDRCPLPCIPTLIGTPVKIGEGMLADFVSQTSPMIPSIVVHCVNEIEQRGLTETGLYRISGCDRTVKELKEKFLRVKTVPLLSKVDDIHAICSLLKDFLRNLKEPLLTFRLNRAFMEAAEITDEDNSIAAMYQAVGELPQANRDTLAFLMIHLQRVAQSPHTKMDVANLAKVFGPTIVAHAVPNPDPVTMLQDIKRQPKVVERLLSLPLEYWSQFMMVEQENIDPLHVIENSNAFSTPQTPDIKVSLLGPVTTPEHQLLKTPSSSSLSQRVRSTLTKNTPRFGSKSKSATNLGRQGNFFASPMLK

[13] = viability loss in HeLa cells – cytotoxicity control for MgcRacGAP inhibitor project, dose response (AID 624300); assay type: functional
[14] = molecular target: T5, Histone-lysine N-methyltransferase NSD2 (Homo sapiens, UniProt O96028); assay type: biochemical
T5 sequence (O96028 whole entry): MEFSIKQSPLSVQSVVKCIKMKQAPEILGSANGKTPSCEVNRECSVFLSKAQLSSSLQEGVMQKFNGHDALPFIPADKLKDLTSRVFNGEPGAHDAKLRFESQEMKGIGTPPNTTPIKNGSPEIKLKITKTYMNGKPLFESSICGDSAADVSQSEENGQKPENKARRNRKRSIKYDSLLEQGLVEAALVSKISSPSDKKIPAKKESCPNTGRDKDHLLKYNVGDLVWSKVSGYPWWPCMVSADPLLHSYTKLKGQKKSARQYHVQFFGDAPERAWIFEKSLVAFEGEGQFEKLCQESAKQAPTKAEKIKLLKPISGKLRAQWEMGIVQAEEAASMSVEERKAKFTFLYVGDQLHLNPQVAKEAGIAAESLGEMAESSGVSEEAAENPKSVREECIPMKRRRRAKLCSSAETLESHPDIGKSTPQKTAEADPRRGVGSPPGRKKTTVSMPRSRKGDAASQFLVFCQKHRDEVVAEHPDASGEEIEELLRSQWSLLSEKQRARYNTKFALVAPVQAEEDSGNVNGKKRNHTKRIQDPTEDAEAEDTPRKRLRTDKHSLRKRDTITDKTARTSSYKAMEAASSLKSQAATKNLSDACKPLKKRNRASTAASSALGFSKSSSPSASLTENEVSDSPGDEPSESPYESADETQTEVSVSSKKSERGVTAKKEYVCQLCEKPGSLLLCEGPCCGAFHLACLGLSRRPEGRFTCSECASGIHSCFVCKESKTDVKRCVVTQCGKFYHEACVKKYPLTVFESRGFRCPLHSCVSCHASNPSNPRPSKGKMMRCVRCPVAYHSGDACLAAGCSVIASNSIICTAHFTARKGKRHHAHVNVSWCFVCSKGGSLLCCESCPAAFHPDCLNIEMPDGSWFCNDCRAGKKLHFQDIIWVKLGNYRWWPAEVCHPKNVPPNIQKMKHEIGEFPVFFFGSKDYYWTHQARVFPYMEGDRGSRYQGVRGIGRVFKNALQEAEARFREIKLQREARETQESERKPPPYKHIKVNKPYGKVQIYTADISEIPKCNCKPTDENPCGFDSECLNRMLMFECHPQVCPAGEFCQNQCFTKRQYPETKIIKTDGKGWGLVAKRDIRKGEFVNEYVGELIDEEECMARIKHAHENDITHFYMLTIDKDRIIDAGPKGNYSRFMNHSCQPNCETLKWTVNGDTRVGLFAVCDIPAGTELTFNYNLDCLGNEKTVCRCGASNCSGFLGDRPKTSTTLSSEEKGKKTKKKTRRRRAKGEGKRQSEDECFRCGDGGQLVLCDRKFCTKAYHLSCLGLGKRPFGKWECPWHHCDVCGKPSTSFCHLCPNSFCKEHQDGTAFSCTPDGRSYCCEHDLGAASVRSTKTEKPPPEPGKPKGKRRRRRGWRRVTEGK

[15] = molecular target: Ras and Rab interactor 1/Tyrosine-protein kinase ABL1 (Homo sapiens, UniProt P00519+Q13671); assay type: functional;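 note: biochemical TR-FRET dose-response test measuring inhibition of binding between Rin1 and Abl proteins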
cells [16] = assay type: functional, cell-based
cells [17] = assay type: functional, cell-based; remark: listed apart in the source
[18] = microbe, parasite or virus in culture; assay type: functional; conditions: Mycobacterium tuberculosis
Fatty acid synthase [19] = molecular target: T6, Fatty acid synthase (Homo sapiens, UniProt P49327); assay: inhibition of human FAS-TE enzyme activity – biochemical, kinetic fluorescence intensity, dose response (AID 624326); assay type: functional;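 note: rate of fluorescence rise from hydrolysis of a fluorogenic O-methyl fluorescein ester substrate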
Fatty acid synthase [20] = molecular target: T6, Fatty acid synthase; assay: inhibition of human FAS-TE enzyme activity – biochemical, endpoint fluorescence intensity, uHTS hits, dose response (AID 624327); assay type: functional;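 note: fluorescence from hydrolysis of an O-methyl fluorescein acyl ester substrate by the enzyme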

Sequence of Ras and Rab interactor 1/Tyrosine-protein kinase ABL1 (P00519 whole entry): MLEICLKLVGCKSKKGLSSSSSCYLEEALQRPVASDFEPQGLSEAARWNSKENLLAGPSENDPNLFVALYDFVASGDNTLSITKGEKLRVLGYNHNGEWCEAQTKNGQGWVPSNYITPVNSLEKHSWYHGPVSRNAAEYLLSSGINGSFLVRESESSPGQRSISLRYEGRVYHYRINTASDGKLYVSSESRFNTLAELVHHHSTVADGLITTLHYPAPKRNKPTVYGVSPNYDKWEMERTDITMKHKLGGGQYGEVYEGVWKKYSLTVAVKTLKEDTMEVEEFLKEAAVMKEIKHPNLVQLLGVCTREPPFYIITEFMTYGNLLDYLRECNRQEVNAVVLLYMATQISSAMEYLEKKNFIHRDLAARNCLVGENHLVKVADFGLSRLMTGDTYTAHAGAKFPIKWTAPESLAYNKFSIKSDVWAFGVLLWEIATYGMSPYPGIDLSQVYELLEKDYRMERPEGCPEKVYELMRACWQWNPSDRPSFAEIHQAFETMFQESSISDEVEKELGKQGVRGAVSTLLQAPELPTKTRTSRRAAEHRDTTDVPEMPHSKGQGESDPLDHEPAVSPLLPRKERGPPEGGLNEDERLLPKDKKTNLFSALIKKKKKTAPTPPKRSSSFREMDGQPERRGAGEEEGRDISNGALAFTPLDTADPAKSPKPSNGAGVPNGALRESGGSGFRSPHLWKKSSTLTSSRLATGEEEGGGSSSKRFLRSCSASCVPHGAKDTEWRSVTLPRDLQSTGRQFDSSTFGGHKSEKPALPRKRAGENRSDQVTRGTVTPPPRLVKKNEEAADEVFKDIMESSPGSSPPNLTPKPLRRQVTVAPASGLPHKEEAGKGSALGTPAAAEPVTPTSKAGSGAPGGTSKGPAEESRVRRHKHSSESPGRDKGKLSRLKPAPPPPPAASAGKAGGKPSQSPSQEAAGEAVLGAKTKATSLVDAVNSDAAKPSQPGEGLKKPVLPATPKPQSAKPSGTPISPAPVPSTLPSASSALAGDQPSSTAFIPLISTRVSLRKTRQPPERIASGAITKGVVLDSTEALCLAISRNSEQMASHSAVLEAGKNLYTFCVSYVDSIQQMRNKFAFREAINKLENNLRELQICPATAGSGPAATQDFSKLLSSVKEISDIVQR
Sequence of Ras and Rab interactor 1/Tyrosine-protein kinase ABL1 (Q13671 whole entry): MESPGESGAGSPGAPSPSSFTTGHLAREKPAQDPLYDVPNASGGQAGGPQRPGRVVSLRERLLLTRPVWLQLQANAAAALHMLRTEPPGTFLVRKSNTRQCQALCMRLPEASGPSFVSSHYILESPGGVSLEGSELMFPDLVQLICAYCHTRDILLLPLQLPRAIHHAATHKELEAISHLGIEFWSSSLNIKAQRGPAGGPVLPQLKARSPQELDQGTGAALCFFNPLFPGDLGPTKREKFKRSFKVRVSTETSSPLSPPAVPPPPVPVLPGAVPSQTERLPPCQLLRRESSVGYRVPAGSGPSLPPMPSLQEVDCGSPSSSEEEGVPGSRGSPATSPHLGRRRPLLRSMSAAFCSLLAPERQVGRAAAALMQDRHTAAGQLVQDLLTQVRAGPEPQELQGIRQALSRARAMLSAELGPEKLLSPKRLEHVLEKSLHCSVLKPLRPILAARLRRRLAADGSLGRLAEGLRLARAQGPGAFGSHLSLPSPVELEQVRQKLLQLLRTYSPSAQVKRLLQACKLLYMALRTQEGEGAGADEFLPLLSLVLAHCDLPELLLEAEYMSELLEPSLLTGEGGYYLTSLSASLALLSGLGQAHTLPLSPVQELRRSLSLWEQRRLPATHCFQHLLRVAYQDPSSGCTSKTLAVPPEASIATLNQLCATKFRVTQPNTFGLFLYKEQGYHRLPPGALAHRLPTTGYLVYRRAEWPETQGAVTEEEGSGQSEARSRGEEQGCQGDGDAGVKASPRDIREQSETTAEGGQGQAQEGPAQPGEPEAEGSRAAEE
T6 sequence (P49327 whole entry): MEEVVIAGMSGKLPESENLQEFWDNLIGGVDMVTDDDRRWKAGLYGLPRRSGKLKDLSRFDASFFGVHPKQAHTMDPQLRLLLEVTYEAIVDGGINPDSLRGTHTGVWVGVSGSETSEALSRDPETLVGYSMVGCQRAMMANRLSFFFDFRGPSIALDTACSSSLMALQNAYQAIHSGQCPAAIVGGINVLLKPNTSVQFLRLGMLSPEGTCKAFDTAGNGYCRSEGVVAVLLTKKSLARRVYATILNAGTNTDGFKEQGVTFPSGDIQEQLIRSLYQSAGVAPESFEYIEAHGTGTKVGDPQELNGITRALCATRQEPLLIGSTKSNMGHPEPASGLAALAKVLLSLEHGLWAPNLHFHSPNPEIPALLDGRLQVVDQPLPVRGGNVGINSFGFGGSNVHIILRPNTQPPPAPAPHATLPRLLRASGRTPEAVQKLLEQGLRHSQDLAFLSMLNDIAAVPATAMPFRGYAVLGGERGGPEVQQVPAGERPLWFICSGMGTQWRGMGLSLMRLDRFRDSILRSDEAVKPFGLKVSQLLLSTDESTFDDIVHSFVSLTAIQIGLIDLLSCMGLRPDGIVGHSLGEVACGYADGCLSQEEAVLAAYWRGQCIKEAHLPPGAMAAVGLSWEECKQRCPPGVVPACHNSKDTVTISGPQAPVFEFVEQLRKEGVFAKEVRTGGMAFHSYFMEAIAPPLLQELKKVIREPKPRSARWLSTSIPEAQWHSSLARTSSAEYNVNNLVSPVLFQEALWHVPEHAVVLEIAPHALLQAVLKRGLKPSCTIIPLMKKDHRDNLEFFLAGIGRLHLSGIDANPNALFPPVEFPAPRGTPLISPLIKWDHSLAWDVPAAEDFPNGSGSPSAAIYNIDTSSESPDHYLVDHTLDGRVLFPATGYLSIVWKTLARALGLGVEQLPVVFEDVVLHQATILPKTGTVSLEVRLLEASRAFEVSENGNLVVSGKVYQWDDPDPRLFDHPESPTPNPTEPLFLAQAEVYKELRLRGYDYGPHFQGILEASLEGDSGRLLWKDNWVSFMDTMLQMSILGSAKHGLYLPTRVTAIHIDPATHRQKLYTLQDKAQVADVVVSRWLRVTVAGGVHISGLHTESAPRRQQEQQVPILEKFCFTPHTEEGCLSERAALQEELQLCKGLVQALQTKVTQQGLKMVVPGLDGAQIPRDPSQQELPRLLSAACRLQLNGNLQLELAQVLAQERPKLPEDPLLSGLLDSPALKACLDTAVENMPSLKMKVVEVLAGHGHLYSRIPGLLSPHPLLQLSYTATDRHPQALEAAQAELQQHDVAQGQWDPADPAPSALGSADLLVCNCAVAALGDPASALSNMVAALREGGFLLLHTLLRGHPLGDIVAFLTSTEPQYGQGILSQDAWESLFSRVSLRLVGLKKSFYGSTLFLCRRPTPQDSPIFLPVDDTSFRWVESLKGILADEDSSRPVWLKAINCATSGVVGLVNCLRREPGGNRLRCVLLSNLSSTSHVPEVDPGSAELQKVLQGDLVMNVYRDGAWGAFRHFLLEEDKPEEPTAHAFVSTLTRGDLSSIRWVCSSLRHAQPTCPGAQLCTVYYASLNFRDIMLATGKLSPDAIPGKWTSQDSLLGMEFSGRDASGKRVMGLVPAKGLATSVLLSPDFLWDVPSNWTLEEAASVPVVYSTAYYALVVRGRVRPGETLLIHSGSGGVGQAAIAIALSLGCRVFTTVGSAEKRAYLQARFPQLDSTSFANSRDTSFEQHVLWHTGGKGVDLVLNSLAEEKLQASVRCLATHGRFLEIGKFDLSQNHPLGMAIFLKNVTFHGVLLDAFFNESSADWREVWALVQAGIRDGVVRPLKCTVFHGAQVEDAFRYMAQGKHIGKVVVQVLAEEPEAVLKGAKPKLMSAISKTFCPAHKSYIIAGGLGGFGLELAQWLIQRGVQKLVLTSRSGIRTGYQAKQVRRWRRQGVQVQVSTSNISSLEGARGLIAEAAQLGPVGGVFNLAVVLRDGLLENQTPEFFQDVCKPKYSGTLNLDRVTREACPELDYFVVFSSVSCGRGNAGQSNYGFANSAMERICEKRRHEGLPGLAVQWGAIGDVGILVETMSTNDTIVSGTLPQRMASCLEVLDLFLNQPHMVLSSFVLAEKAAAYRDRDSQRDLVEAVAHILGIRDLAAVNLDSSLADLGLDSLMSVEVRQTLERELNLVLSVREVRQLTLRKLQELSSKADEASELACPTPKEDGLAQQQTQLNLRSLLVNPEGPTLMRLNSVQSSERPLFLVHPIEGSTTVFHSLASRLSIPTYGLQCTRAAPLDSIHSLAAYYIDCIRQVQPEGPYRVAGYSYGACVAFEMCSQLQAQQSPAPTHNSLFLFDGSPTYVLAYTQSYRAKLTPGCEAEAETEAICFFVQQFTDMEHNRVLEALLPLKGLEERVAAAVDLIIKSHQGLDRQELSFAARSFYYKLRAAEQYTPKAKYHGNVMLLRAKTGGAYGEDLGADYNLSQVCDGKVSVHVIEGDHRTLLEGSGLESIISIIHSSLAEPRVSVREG
Sequence of Paired box protein Pax-8 (Q06710 whole entry, the tested form may be a part): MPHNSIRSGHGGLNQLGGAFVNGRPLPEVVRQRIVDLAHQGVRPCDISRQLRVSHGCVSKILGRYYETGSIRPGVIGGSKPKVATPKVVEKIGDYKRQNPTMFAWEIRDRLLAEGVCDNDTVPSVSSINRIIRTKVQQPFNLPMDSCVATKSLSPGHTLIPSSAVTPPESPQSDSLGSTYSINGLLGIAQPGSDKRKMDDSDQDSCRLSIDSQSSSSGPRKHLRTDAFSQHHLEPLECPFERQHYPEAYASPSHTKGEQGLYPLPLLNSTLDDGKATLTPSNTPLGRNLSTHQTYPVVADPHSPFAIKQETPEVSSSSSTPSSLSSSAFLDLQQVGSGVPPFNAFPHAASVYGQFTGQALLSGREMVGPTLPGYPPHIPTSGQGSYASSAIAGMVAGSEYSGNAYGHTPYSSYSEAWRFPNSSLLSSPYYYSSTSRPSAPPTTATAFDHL

COc1cc(-c2c(-c3cc(OC)c(OC)c(OC)c3)noc2C)ccc1F
IC50 [1]: 75.9 µM (inactive)
AC50 [2]: 29.7 µM (active)
AC50 [3]: 21.3 µM (active)
AC50 (Paired box protein Pax-8): 2.78 µM (active)

CCC(C(=O)c1ccccc1)N(C(=O)c1ccccc1Cl)N1C(=O)C2C3C=CC(C3)C2C1=O (stereo not given)
AC50 [4]: 4.55 µM (active)
AC50 [2]: 27.5 µM (active)
IC50 [5]: 24.3 µM (not active)
AC50 [6]: 6.01 µM (active)
AC50 (Cytochrome P450 2D6): 7.08 µM (inconclusive)
AC50 (Cytochrome P450 2C9): 10 µM (inconclusive)
AC50 [7]: 7.95 µM (active)

Cc1ccccc1Cn1cccc1/C=C1/C(=N)N2C=CSC2=NC1=O
EC50 [8]: > 99 µM (inactive)
EC50 [9]: > 53 µM (inactive)
EC50 [10]: > 99 µM (inactive)
IC50 [11]: > 47.1 µM (inactive)

Cc1ccc(-c2cnc(NCc3cc4c(cc3[N+](=O)[O-])OCO4)n2C)cc1C
IC50 [12]: 77.6 µM (active)
CC50 [13]: 100 µM (active)

O=C1NC(=S)NC(=O)C1=NNc1cc(S(=O)(=O)Nc2ccc(Cl)cc2)ccc1Cl
AC50 [14]: > 20 µM (inactive)

CC(C)(C)n1nnnc1C(c1cccnc1)N(Cc1ccccc1)Cc1cccs1 (stereo not given)
AC50 [4]: 5.51 µM (active)
AC50 [2]: 17.5 µM (active)
AC50 [3]: 52.5 µM (active)
AC50 [6]: 7 µM (active)
AC50 [7]: 8.29 µM (active)

C[C@@H]1CCCCO[C@@H](CN(C)S(=O)(=O)c2cccs2)[C@@H](C)CN([C@H](C)CO)C(=O)c2cc(NS(=O)(=O)c3ccccc3)ccc2O1
IC50 [15]: 1.27 µM (active)

CCOC(=O)/C(=N\Nc1ccc(C(C)=O)cc1)c1csc(Nc2ccccc2)n1
EC50 [8]: 38.1 µM (inactive)
EC50 [9]: 18.3 µM (active)
EC50 [10]: > 99 µM (inactive)

CCCOc1ccc(/C=N/NC(=O)CSc2ccccn2)cc1OC
EC50 (cells [16]): > 350 µM (not active)
IC50 [15]: 12 µM (inactive)
EC50 (cells [17]): > 350 µM (not active)

CCOC(=O)N1CCN(C(=O)C[C@H]2C[C@@]3(C(=O)OC)C(=C[C@H](C(C)(C)C)O[C@@H]3C)N(CCC3=CCCCC3)C2=O)CC1
AC50 [4]: 2.49 µM (active)
AC50 [2]: 3.46 µM (active)
AC50 [3]: 25.6 µM (active)
AC50 [6]: 3.45 µM (active)
AC50 [7]: 4.21 µM (active)

COc1cc(/C=N/N(C)c2ccccc2)cc(Cl)c1O
CC50 [18]: > 40 µM (active)
IC50 [12]: 38.2 µM (active)
IC50 (Fatty acid synthase [19]): 5.46 µM (active)
IC50 (Fatty acid synthase [20]): 4.5 µM (active)
CC50 [13]: 100 µM (active)
